Key:
caco cell = test: Bioaccessibility studies using in-vitro digestion/caco cell techniques; type: in vitro ADME; settings: carotenoids from Gac pulp
Source text: The good absorption and transport of carotenoids after gac pulp consumption are probably due to its soft texture and to these high levels of fatty acids. […] This is in sharp contrast to other carotenoid rich fruits, which show a relatively low carotenoid bioavailability due to the lack of uptake enhancing lipids.

[1] = Gac pulp consumed alone, 30-day feeding trial; cited from earlier work

Row | Structure (SMILES) | bioavailability (bioaccessibility), in-vitro digestion/caco cell (caco cell) | bioavailability: change in the human circulation after feeding trial [1]
1 | CC1=C(/C=C/C(C)=C/C=C/C(C)=C/C=C/C=C(C)/C=C/C=C(C)/C=C/C2=C(C)CCCC2(C)C)C(C)(C)CCC1 [beta-carotene] | high bioavailability | significant increase
2 | CC(C)=CCC/C(C)=C/C=C/C(C)=C/C=C/C(C)=C/C=C/C=C(C)/C=C/C=C(C)/C=C/C=C(\C)CCC=C(C)C [lycopene] | high bioavailability | significant increase
